The record followed here is patent US10426757B2, “Compositions and methods for promoting intestinal stem cell and/or non-stem progenitor cell function” (Whitehead Institute for Biomedical Research, priority 2014, dated 2019).

“Also recorded” adds a separate entry of the source.

The assay relates to control diet-derived organoids. As to the kind of experiment: Ex vivo exposure of crypts and organoids to palmitic acid. Type of assay: cell-based, mouse. The procedure:
To examine whether PA, like a HFD, augmented the numbers of ISCs per primary organoid, we assayed the self-renewal capacity of the primary organoids in secondary cultures and assessed how PA-treatment influenced the frequency of ISCs.
Isolated crypts were counted and embedded in Matrigel™ (Corning 356231 growth factor reduced) at 5-10 crypts per μl and cultured in a modified form of medium as described previously.^14 Briefly, Advanced DMEM (Gibco) was supplemented by EGF 40 ng ml^−1 (R&D), Noggin 200 ng ml^−1 (Peprotech), R-spondin […](R&D or Sino Biological), N-acetyl-L-cysteine 1 μM (Sigma-Aldrich), N2 1X (Life Technologies), B27 1X (Life Technologies), Chiron 10 μM (Stemgent), Y-27632 dihydrochloride monohydrate 20 ng ml^−1 (Sigma-Aldrich). 25 μL drops of Matrigel™ with crypts were plated onto a flat bottom 48-well plate (Corning 3548) and allowed to solidify for 20-30 minutes in a 37° C. incubator. Three hundred microliters of crypt culture medium was then overlaid onto the Matrigel™, changed every three days, and maintained at 37° C. in fully humidified chambers containing 5% CO2. Clonogenicity (colony-forming efficiency) was calculated by plating 50-300 crypts and assessing organoid formation 3-7 days or as specified after initiation of cultures.
Isolated ISCs or progenitor cells were centrifuged for 5 minutes at 250 g, re-suspended in the appropriate volume of crypt culture medium (500-1,000 cells μl^−1), then seeded onto 25-30 μl Matrigel™ (Corning 356231 growth factor reduced) containing 1 μM jagged (Ana-Spec) in a flat bottom 48-well plate (Corning 3548). Alternatively, ISCs and Paneth cells were mixed after sorting in a 1:1 ratio, centrifuged, and then seeded onto Matrigel™. The Matrigel™ and cells were allowed to solidify before adding 300 μl of crypt culture medium. The crypt media was changed every second or third day. Organoid bodies were quantified on days 3, 7 and 10 of culture, unless otherwise specified. With respect to the study results presented in FIGS. 14-16, organoid bodies were quantified on day 3-4. […]

Take `CCCCCCCCCCCCCCCC(=O)O` [PA, palmitic acid]: the “primary organoid formation (clonogenic potential of crypts)” value (30 μM PA) is “did not change; also recorded: no effect”. Besides, for the setting “30 μM PA, four weeks”, the secondary organoid-forming activity entry was “more than twofold increase; also recorded: more secondary organoid-forming activity”. For the same compound, the “frequency of Lgr5-GFP^hi ISCs in organoids” value (four-week PA treatment) is “twofold increase; also recorded: increased the frequency”.
